From patent US11167012B2, “Peptide inhibition of CCR3-mediated diseases or conditions” (The Board of Trustees of the University of Illinois, priority 2015, dated 2021)
Entries after “also recorded” stand apart in the source; their conditions may differ. Primed or numbered codes have the meaning given here. Where no end group is shown, it is not given here. PEG27′ = polyethylene glycol chain of 27 units

Columns and labels:
CCR3 [1] = target: T1, CCR3 (Homo sapiens, UniProt P51677); test: CCR3 surface expression and internalization by flow cytometry, AML14.3D10-CCR3 cells; assay type: cell-based; set-up: host or cells: AML14.3D10-CCR3 (eosinophilic myelocytic cell line, kept under G418); conditions: for CCR3 internalization or surface accumulation on prolonged treatment: 1 μM for 24, 48 or 72 hour, with or without CCL11 (12 nM); for CCL11-induced receptor internalization: 1 μM, added concurrently with 12 nM CCL11
T1 sequence (P51677 1-355): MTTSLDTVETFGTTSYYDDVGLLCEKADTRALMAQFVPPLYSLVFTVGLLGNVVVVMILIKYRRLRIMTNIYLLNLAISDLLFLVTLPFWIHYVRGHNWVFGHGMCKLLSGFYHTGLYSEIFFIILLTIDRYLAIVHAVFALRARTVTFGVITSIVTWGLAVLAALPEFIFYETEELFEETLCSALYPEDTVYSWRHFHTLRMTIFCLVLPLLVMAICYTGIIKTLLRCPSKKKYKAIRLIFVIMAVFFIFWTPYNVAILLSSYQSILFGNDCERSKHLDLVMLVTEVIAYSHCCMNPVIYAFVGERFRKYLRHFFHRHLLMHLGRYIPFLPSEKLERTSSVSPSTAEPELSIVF
Experimental: Error bars represent SEM. *p<0.05, compared to untreated cells; n=3.
To assess surface expression of CCR3, cells were stained using PE-conjugated anti-human CCR3 antibody (clone 5E8, BioLegend) or PE-conjugated isotype-matched control after blocking with 10% human AB serum. To determine ligand-induced CCR3 internalization, cells were incubated with various chemokines for 1 hour at 37° C., washed once in staining buffer (PBS+0.5% BSA+0.1% NaN3) before being stained as above. After antibody staining, cells were fixed in 2% paraformaldehyde and analyzed on a QUANTA SC flow cytometer (Beckman Coulter, Indianapolis, Ind.).

CCR3 [2] = target: T1, CCR3; test: Chemotaxis assay (Transwell), AML14.3D10-CCR3 cells; assay type: cell-based; set-up: host or cells: AML14.3D10-CCR3 (eosinophilic myelocytic cell line, kept under G418); conditions: for tolerance to inhibition of CCL11-induced chemotaxis: 1 μM for 24, 48 or 72 hour, CCL11 12 nM; for inhibition of CCR3-mediated chemotaxis induced by Eotaxin/CCL11, RANTES/CCL5 and MEC/CCL28: AML14.3D10-CCR3 cells, R3-2-1 0.4, 2 or 10 μM
Experimental: AML14.3D10-CCR3 (ATCC, Manassas, Va.; Daugherty, et al. (1996) J. Exp. Med. 183:2349-2354) were maintained in RPMI-1640 supplemented with 10% FBS, 1.5 g/L sodium bicarbonate, 4.5 g/L glucose, 2 mM L-glutamine, 10 mM HEPES, 1 mM sodium pyruvate, 50 μM β-mercaptoethanol, and 2 mg/ml G418 in a humidified incubator with 5% CO2 at 37° C.
Cell migration was determined using a 96-well […]® system (Corning, Tewksbury, Mass.). […] The two chambers were separated by a polycarbonate filter with 5 μm pores. For AML14.3D10-CCR3 cells, 2×10^5 cells/well were resuspended in RPMI-1640+0.1% BSA and allowed to migrate for 4 hours at 37° C. For blood eosinophils, 1×10^5 cells/well were resuspended in X-VIVO 10+0.5% BSA and allowed to migrate for 3 hours at 37° C. Migrated cells were counted using a Beckman QUANTA SC flow cytometer. All experiments were performed in duplicate. Checkerboard analysis was done to distinguish chemotaxis from chemokinesis.
(§1) Primary eosinophils and the stable CCR3+eosinophilic myelocytic cell line, AML14.3D10-CCR3 (Daugherty, et al. (1996) J. Exp. Med. 183:2349-2354) undergo CCR3-mediated chemotaxis induced by multiple chemokines including eotaxin/CCL11, RANTES/CCL5, MCP-4/CCL13, and MEC/CCL28 (Daugherty, et al. (1996) J. Exp. Med. 183:2349-2354; Pan, et al. (2000) J. Immunol. 165:2943-2949).

ERK1/2 phosphorylation = test: Signal transduction assay, Western blotting of phospho-ERK1/2 in AML14.3D10-CCR3 cells; assay type: cell-based, human; conditions: 10 μM, CCL11-induced
Experimental: Phospho-ERK was detected using a specific antibody. The membrane was stripped and reprobed for total ERK1/2 as loading control. Immunoblots were quantified by densitometry using ImageJ. PD: PD184161, MEK inhibitor.
AML14.3D10-CCR3 cells were serum starved for 16 hours. Cells were pretreated with vehicle control, R3-2-1 or PD184161 for 30 minutes at 37° C., and subsequently stimulated with 8 nM CCL5 or CCL11 for 2 minutes. Stimulation was stopped by adding ice cold PBS. Cells were centrifuged and lysed in RIPA buffer containing protease and phosphatase inhibitors. Cell lysates were resolved on a 12% SDS-PAGE gel (10 μg/lane), transferred to PVDF membrane and blocked in 5% milk. Phospho-ERK1/2 was detected using rabbit monoclonal antibody (clone D13.14.4E, Cell Signaling Technology, Danvers, Mass.) and secondary goat anti-rabbit IgG-HRP (Santa Cruz Biotechnology, Dallas, Tex.). As a loading control, the membrane was subsequently stripped and re-probed with an antibody against total ERK1/2 (clone 127F5, Cell Signaling Technology).
Concurrent to ligand binding and activation, CCR3 undergoes ligand-induced desensitization and internalization (Zimmermann, et al. (1999) J. Biol. Chem. 274:12611-12618). As part of the desensitization process, CCR3 is degraded. This is thought to occur via β-arrestin recruitment to phosphorylated CCR3 and subsequent sequestration of the receptor into endosomal compartments, eventually leading to degradation. β-arrestin signaling is central in this process and is characterized by a late activation of signaling pathways such as MAPK/ERK1/2, in contrast to acute activation by G proteins. […] Therefore, the R3-2-1 peptide is a biased antagonist in that it inhibits the […] of CCL11 ligand-induced β-arrestin signaling, whereas the small molecule inhibitors are unbiased antagonists.

[3] = test system: eosinophil recruitment into the esophageal epithelium; test: Mouse model of EoE, oxazalone-challenged L2-IL5 transgenic mice; assay type: in vivo; conditions: i.v., 24 hours after last OXA challenge
Experimental: Skin sensitized L2-IL5 transgenic mice received topical esophageal oxazalone (OXA) challenges by gavage (i.e.) on days 5, 8 and 12 (FIG. 5A). R3-2-1 peptide nanoparticles, control peptide (R3-2-3) or CCR3 inhibitor UCB35625 (UCB) were given immediately before on days 5, 8, 10 and 12 (FIG. 5A). Esophageal eosinophilia was assessed 24 hours after the last OXA challenge and treatment (day 13). […] Error bars represent SEM.
Mice were treated i.v. with R3-2-1 peptide, scrambled R3-2-3 control peptide ([…]-PEG27-NH2; SEQ ID NO:24), or the allosteric non-selective CCR3 inhibitor, UCB35625. Eosinophil recruitment into the esophageal epithelium was assessed 24 hours after the last OXA challenge by counting eosinophils in 9 high power fields (hpf) covering the total esophagus or 3 hpf covering the distal esophagus.

CCR3 [4] = target: T1, CCR3; test: Eotaxin-induced chemotaxis of 4DE4-CCR3 cells; assay type: cell-based; set-up: expressed in transfected cells; host or cells: 4DE4 mouse pre-B cell lymphoma line; conditions: 80 nM eotaxin, 4 hours
Experimental: Cells were pretreated with, and then allowed to migrate towards, 80 nM eotaxin in the presence of the various CCR3 transmembrane peptides for 4 hours. Data are from three independent experiments. Error bars represent SEM.
To determine the effects of these peptides on CCR3-mediated chemotaxis, 4DE4-CCR3 cells were allowed to migrate to eotaxin/CCL11 in the presence of each peptide. 4DE4-CCR3, a mouse pre-B cell lymphoma line engineered to stably express human CCR3, has been used extensively to study CCR3 expression and CCR3-mediated chemotaxis.

4DE4-CCR3 cells = test: Cytotoxicity in 4DE4-CCR3 cells; assay type: cell-based, mouse; conditions: concentrations tested in chemotaxis assay
CCR3 [5] = target: T1, CCR3; test: Chemotaxis assay (Transwell), blood eosinophils; assay type: cell-based; set-up: host or cells: AML14.3D10-CCR3 (eosinophilic myelocytic cell line, kept under G418); conditions: scramble peptide control
Description: Blood eosinophils were purified from anti-coagulated blood drawn from mild allergic asthmatic subjects. Peripheral blood was subjected to density gradient centrifugation over FICOLL-PAQUE® Plus (GE Healthcare, Pittsburgh, Pa.) media to obtain a pellet containing erythrocytes and granulocytes. After erythrocyte lysis via hypotonic shock, eosinophils were purified by negative selection using a cocktail of antibody-conjugated magnetic beads against non-eosinophils (Miltenyi Biotec, Auburn, Calif.). The eosinophils were resuspended in X-VIVO 10 without phenol red. The purity and viability of the eosinophils obtained was routinely >97% as assessed by Hema III and trypan blue staining, respectively.
Cell migration was determined using a 96-well TRANSWELL® system (Corning, Tewksbury, Mass.). Briefly, 200 μl chemoattractant or control medium was added to the lower chamber while 100 μl cells were added to the upper chamber. The two chambers were separated by a polycarbonate filter with 5 μm pores. For AML14.3D10-CCR3 cells, 2×10^5 cells/well were resuspended in RPMI-1640+0.1% BSA and allowed to migrate for 4 hours at 37° C. […] Migrated cells were counted using a Beckman QUANTA SC flow cytometer. All experiments were performed in duplicate. Checkerboard analysis was done to distinguish chemotaxis from chemokinesis.
as §1, with “165:2943-2949). […] In addition, R3-2-1 inhibits chemotaxis of both AML14.3D10-CCR3 and blood eosinophils induced by CCL11/Eotaxin-1, CCL24/Eotaxin-2, and CCL26/Eotaxin-3 in a dose-dependent fashion (Table 3).” for “165:2943-2949).”

| Molecule | CCL11-induced receptor internalization (CCR3 [1]) | acute (2-5 minutes) and late (30 minutes) phase phosphorylation of ERK1/2 (ERK1/2 phosphorylation) | cytotoxicity (4DE4-CCR3 cells) | other results |
| --- | --- | --- | --- | --- |
| COC(=O)[C@H](Cc1ccc([N+](=O)[O-])cc1)NC(=O)c1cccc2ccccc12 [SB328437, N-(1-Naphthalenylcarbonyl)-4-nitro-L-phenylalanine methyl ester, reference compound] | significantly inhibit chemokine-induced CCR3 internalization | inhibits both acute and late phase phosphorylation |  | CCR3 internalization or surface accumulation on prolonged treatment (CCR3 [1]): surface accumulation; tolerance to inhibition of CCL11-induced chemotaxis (CCR3 [2]): slowly lose their ability to antagonize CCL11-induced chemotaxis; inhibition of CCR3-mediated chemotaxis induced by Eotaxin/CCL11, RANTES/CCL5 and MEC/CCL28 (CCR3 [2]): only inhibits CCL11-induced but not CCL5- or CCL28-induced chemotaxis |
| CC[N+]1(C/C2=C/CCCCCC2)CCC(NC(=O)C2c3cc(Cl)ccc3Oc3ccc(Cl)cc32)CC1.[I-] (stereo not drawn) [UCB35625, 1,4-trans-1-(1-Cycloocten-1-ylmethyl)-4-[[(2,7-dichloro-9H-xanthen-9-yl)carbonyl]amino]-1-ethylpiperidinium iodide, reference compound] | significantly inhibit chemokine-induced CCR3 internalization | inhibits the late phase to a higher degree than the early phase phosphorylation |  | eosinophil recruitment into distal and total esophageal epithelium [3]: had no effect; also recorded: ineffective in reducing eosinophil recruitment; CCR3 internalization or surface accumulation on prolonged treatment (CCR3 [1]): surface accumulation; tolerance to inhibition of CCL11-induced chemotaxis (CCR3 [2]): slowly lose their ability to antagonize CCL11-induced chemotaxis; inhibition of CCR3-mediated chemotaxis induced by Eotaxin/CCL11, RANTES/CCL5 and MEC/CCL28 (CCR3 [2]): potent inhibitor of chemotaxis induced by multiple CCR3 agonists in vitro |
| Ac-KDDDLLSGFYHTGLYSEIFFIILLTI [TM3] |  |  |  | inhibition of eotaxin-induced chemotaxis of 4DE4-CCR3 cells (CCR3 [4]): no significant CCR3 antagonism |
| Ac-KDDDQFVPPLYSLVFTVGLLGNVVVVMILI [TM1] |  |  | moderately cytotoxic |  |
| Ac-VTFGVITSIVTWGLAVLAALPEFIFDDDK [TM4] |  |  |  | inhibition of eotaxin-induced chemotaxis of 4DE4-CCR3 cells (CCR3 [4]): no significant CCR3 antagonism |
| CDDDTIFCLVLPLLVMAICYTGII [TM5] |  |  | highly cytotoxic |  |
| CDDDVMLVTEVIAYSHCCMNPVIYAFV [TM7] |  |  | highly cytotoxic |  |
| LIFVIMAVFFIFWTPYNVAILDDDC [TM6] |  |  | highly cytotoxic |  |
| LLNLAISDLLFLVTLPFWIHYDDDC [TM2] |  |  | undetectable or low cytotoxicity |  |
| YLFLLVTVFHIWLPHNRGHVWGFDDD-PEG27-NH2 (YLFLLVTVFHIWLPHNRGHVWGFDDD-{PEG27′-NH2}) [Peptide R3-2-3, reference compound] | neither R3-2-1 (1 μM) nor R3-2-3 (1 μM) interfere with CCL11-induced receptor internalization | does not inhibit either acute or late phase phosphorylation |  | CCL11-, CCL24-, or CCL26-induced chemotaxis of blood eosinophils (CCR3 [5]): did not inhibit |
